According to patent US9139658B2, “Medicament for treatment cancer” (SUMITOMO DAINIPPON PHARMA CO., LTD., priority 2000, dated 2015):
Structures can show the parent of a compound that is named as a salt. Where two headings read alike, the source gives them in different places.

How the values were obtained:
[1] = rabbit chronic experimental model, compared with doxorubicin; cited from earlier work
[2] = system: topoisomerase II; conditions: at a concentration which leads to 50% inhibition of cell proliferation; cited from earlier work
[3] = metabolite obtained by reduction in vivo; cited from earlier work
[4] = compared with amrubicin and amrubicinol; cited from earlier work
[5] = in vitro experiment, Pegram et al. 1999; cited from earlier work
[6] = clinical use; cited from earlier work
[7] = rhesus monkey, iv 2.92 mg/kg (35 mg/m^2), 7-8 times with three weeks intervals, 140-150 days post initiation; cited from earlier work
[8] = system: Human breast cancer cell line BT-474; experiment: Evaluation of combination effects in vitro (WST-1 proliferation, Combination Index by Pegram method); type: cell-based; conditions: for CI value (Combination Index) / D1 (concentration of test agent in combination required for fa): combination with Herceptin; for Df1 (concentration of test agent as single agent required for fa): fa 0.9, BT-474; for combination effect with Herceptin, overall evaluation by Combination Index: summary of Examples 1-3, BT-474
Procedure: The effects of the combined use were evaluated by calculating a Combination Index (CI) following a method of Pegram et al. (M. Pegram et al., Oncogene, 18, 2241-2251 (1999)). Human breast cancer cell line BT-474 (a cell line in which HER2 is highly expressed) was obtained from ATCC (American Type Culture Collection). In a medium comprising equal amount of D-MEM (Dulbecco's Modified Eagle Medium) medium and F-12 (Nutrient Mixture F-12) medium which further contains 2.5 mM L-glutamine, 10% bovine fetal serum (FCS) and 2.5 μg/ml amphotericin B, human breast cancer cell line BT-474 was subcultured. The culture was carried out in an incubator with 5% CO2 at 37° C. This medium was also used in the following experiments. HerceptinTM was dissolved in a dissolution solution attached thereto to prepare a 21 mg/ml stock solution. Thereafter, the solution was used after 2 fold serial dilutions with the medium. […] Doxorubicin hydrochloride was obtained from Kyowa Hakko Kogyo Co., Ltd. A 2 mg/ml solution was prepared by adding 5 ml of sterile water to a 10 mg vial, and the solution was used. Human breast cancer cell line BT-474 on subculture were subjected to a trypsin treatment, suspended in the medium, and seeded on a 96-well plate. The seeding density was set to be 1×10^4 cells/0.1 ml/well. After seeding, cells were cultured overnight in an incubator with 5% CO2 at 37° C. (Day 0). […] The experiments were conducted with n=3 for the agent-treated group, and with n=6 for the non-treated (control) group. Until Day 4, culture was conducted in an incubator with 5% CO2 at 37° C. […] Thereafter, culture was conducted in an incubator with 5% CO2 at 37° C. for 2-4 hours. Absorbance of the culture was then measured with MICROPLATE READER Model 3550-UV (BioRad), and living cell number was measured. […] CI and inhibition rate of proliferation fa were calculated as described above.

[9] = Cardiotoxicity test using monkey (combination with Herceptin); conditions: rhesus monkey, intravenous, amrubicin hydrochloride at two times the dosage of doxorubicin hydrochloride
Procedure: The administration of amrubicin hydrochloride at a dosage of two times of doxorubicin hydrochloride is carried out on the basis of therapeutic dosages of both agents.
Into vein of a rhesus monkey, is administered doxorubicin at a dose of 2.92 mg/kg (35 mg/m^2), 7-8 times with three weeks intervals.
Accordingly, the agent-administered groups are set to be as follows:
1) agent non-administered group
2) doxorubicin hydrochloride 2-4 mg/kg, iv, 8q3W
4) amrubicin hydrochloride 4-8 mg/kg, iv, 8q3W
On 140-150 days post initiation of the administration, the animal is dissected, and histopathological diagnosis of the heart is carried out. Judging from the comparison of impairment of the myocardial cells, cardiotoxicity is evaluated.

[10] = dosage ratio 2:1, fa 0.9, BT-474
[11] = dosage ratio 2:1, fa 0.9, BT-474, CI<1 synergistic, CI=1 additive
[12] = dosage ratio 40:1, fa 0.9, BT-474
[13] = dosage ratio 4:1, fa 0.9, BT-474
[14] = dosage ratio 8:1, fa 0.9, BT-474

SMILES	stabilization of cleavable complex via topoisomerase II [2]	CI value (Combination Index) [8, 10]	D1 (concentration of test agent in combination required for fa) [8, 10]	combination effect with Herceptin judged from CI value [8, 11]	Df1 (concentration of test agent as single agent required for fa) [8]	cardiotoxicity in combination with Herceptin [9]	combination effect with Herceptin, overall evaluation by Combination Index [8]	also measured
CC(=O)[C@]1(N)Cc2c(O)c3c(c(O)c2[C@@H](O[C@H]2C[C@H](O)[C@H](O)CO2)C1)C(=O)c1ccccc1C3=O [amrubicin, (+)-(7S,9S)-9-acetyl-9-amino-7-[(2-deoxy-β-D-erythro-pentopyranosyl)oxy]-7,8,9,10-tetrahydro-6,11-dihydroxy-5,12-naphthacenedione]	sufficiently stabilize a cleavable complex	–	–	–	–	–	–	cardiotoxicity [1]: far less than that of doxorubicin
CC(O)[C@]1(N)Cc2c(O)c3c(c(O)c2[C@@H](O[C@H]2C[C@H](O)[C@H](O)CO2)C1)C(=O)c1ccccc1C3=O (stereo partly drawn) [amrubicinol]	sufficiently stabilize a cleavable complex	–	–	–	–	–	–	anti-cancer activity of metabolite compared with amrubicin [3]: stronger anti-cancer activity
COc1cccc2c1C(=O)c1c(O)c3c(c(O)c1C2=O)C[C@@](O)(C(=O)CO)C[C@@H]3O[C@H]1C[C@H](N)[C@H](O)[C@H](C)O1 [doxorubicin]	does not stabilize the cleavable complex	–	–	–	–	–	–	intercalation activity [4]: about ten times stronger than those of amrubicin and amrubicinol; combination effect with Herceptin [5]: additive effects; cardiotoxicity in combination with Herceptin [6]: cardiotoxicity is developed at a high frequency; histopathological observation of the heart [7]: vacuolation of myocardial cells
COc1cccc2c1C(=O)c1c(O)c3c(c(O)c1C2=O)C[C@@](O)(C(=O)CO)C[C@@H]3O[C@H]1C[C@H](N)[C@H](O)[C@H](C)O1 [Doxorubicin hydrochloride, reference compound]	–	0.92	0.373 µg/mL	additive effect	0.434 µg/mL	cardiotoxicity is strongly presented	–	–
CC(=O)[C@]1(N)Cc2c(O)c3c(c(O)c2[C@@H](O[C@H]2C[C@H](O)[C@H](O)CO2)C1)C(=O)c1ccccc1C3=O [Amrubicin hydrochloride, (+)-(7S,9S)-9-acetyl-9-amino-7-[(2-deoxy-β-D-erythro-pentopyranosyl)oxy]-7,8,9,10-tetrahydro-6,11-dihydroxy-5,12-naphthacenedione]	–	–	–	–	7.542 µg/mL	cardiotoxicity is not presented	marked synergistic effects	CI value (Combination Index) [8, 12]: 0.17; D1 (concentration of test agent in combination required for fa) [8, 12]: 1.267 µg/mL; combination effect with Herceptin judged from CI value [8, 12]: synergistic effect
CC(O)[C@]1(N)Cc2c(O)c3c(c(O)c2[C@@H](O[C@H]2C[C@H](O)[C@H](O)CO2)C1)C(=O)c1ccccc1C3=O.Cl (stereo partly drawn) [Amrubicinol hydrochloride]	–	0.38	0.239 µg/mL	synergistic effect	0.671 µg/mL	–	marked synergistic effects	CI value (Combination Index) [8, 13]: 0.33; D1 (concentration of test agent in combination required for fa) [8, 13]: 0.212 µg/mL; CI value (Combination Index) [8, 14]: 0.42; D1 (concentration of test agent in combination required for fa) [8, 14]: 0.279 µg/mL; combination effect with Herceptin judged from CI value ([8]; dosage ratio in the range of 2:1-8:1, fa 0.9, BT-474): synergistic effect
